Measured values published in patent publication US20260258033A1, “2,7-Naphthyridine Compounds as MASTL Inhibitors” (Pfizer Inc., priority 2022, published 2026).

Target: T1, Full-length human recombinant N-term FLAG-tagged MASTL protein (Homo sapiens, UniProt Q96GX5)
T1 sequence (Q96GX5 1-879): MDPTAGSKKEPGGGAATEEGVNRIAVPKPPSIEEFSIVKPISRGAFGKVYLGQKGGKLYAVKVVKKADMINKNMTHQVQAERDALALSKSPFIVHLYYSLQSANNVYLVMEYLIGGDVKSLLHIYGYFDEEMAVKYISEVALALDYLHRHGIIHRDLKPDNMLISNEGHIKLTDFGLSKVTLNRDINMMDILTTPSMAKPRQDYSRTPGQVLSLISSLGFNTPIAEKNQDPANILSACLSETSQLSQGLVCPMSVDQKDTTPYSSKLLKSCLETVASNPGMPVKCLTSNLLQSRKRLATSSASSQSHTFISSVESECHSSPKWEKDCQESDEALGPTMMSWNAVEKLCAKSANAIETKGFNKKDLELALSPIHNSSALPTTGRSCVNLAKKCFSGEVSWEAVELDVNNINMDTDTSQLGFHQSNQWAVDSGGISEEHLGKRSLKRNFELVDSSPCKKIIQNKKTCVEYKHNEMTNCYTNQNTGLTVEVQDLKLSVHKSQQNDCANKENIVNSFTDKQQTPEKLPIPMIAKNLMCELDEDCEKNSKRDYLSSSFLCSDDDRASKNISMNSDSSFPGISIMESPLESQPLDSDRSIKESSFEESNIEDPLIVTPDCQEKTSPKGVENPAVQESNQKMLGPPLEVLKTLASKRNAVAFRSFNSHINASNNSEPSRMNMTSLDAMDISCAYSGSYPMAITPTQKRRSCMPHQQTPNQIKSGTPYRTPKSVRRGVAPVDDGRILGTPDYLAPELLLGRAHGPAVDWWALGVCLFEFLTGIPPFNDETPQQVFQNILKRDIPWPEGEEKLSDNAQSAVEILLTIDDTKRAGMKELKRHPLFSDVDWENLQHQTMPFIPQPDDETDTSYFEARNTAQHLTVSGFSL
Experiment: MASTL enzyme kinase assay (CHEF PhosphoSens)
Settings: MASTL Ki (nM), 3 nM MASTL, 1 mM ATP, room temperature; geometric mean of at least 3 independent determinations (* denotes n = 2)
Excerpt: MASTL enzyme kinase assay was used to measure the inhibition constant (Ki) of Examples of the present invention.
Full-length human recombinant N-term FLAG-tagged MASTL protein (construct LJIC-3077G2), activated by CDK1, was produced at Pfizer Inc by expression in baculovirus-infected insect cells. All reagents were purchased from Sigma-Aldrich, Inc (St. Louis, MO), unless specified otherwise. Tween™ 20 detergent (10% Solution) was purchased from EMD Millipore Corp (Billerica, MA). The CHEF phosphoacceptor peptide substrate (AQT0693) was purchased from AssayQuant technologies, Inc (Marlboro, MA). […] The reactions contained 1 mM ATP and were initiated by the addition of enzyme. Initial reaction velocities were determined by following the fluorescence (λex=360 nm, λem=485 nm) of appropriate CHEF peptide substrate for 120 minutes in an end-point mode in a SpectraMax Paradigm Microplate Reader (Molecular Devices, LLC. San Jose, California). The extents of reactions were estimated to be <20%.

Row | SMILES | Ki
1 | CCC1(NC)CCc2cnc(Nc3cc4cc(-c5cnnn5C)nc(N)c4cn3)cc21 (single isomer, unassigned) [Example 6, N^6-(5-ethyl-5-(methylamino)-6,7-dihydro-5H-cyclopenta[c]pyridin-3-yl)-3-(1-methyl-1H-1,2,3-triazol-5-yl)-2,7-naphthyridine-1,6-diamine] | 0.076 nM
2 | CCn1nncc1-c1cc2cc(Nc3cc(C4(N)CCCC4)ccn3)ncc2c(N)n1 [Example 38, N^6-(4-(1-aminocyclopentyl)pyridin-2-yl)-3-(1-ethyl-1H-1,2,3-triazol-5-yl)-2,7-naphthyridine-1,6-diamine] | 0.019 nM
3 | CNC(C)(c1ccnc(Nc2cc3cc(-c4cnnn4C)nc(N)c3cn2)c1)C(C)C (single isomer, unassigned) [Example 30, 3-(1-methyl-1H-1,2,3-triazol-5-yl)-N^6-(4-(3-methyl-2-(methylamino)butan-2-yl)pyridin-2-yl)-2,7-naphthyridine-1,6-diamine] | 0.036 nM
4 | Cn1nncc1-c1cc2cc(Nc3cc(C(C)(N)CC(F)(F)F)ccn3)ncc2c(N)n1 (single isomer, unassigned) [Example 25, N^6-(4-(2-amino-4,4,4-trifluorobutan-2-yl)pyridin-2-yl)-3-(1-methyl-1H-1,2,3-triazol-5-yl)-2,7-naphthyridine-1,6-diamine] | 0.078 nM
5 | Cn1nncc1-c1cc2cc(Nc3cc(C(C)(N)C(F)(F)F)ccn3)ncc2c(N)n1 (single isomer, unassigned) [Example 28, N^6-(4-(2-amino-1,1,1-trifluoropropan-2-yl)pyridin-2-yl)-3-(1-methyl-1H-1,2,3-triazol-5-yl)-2,7-naphthyridine-1,6-diamine] | 0.093 nM
6 | CCC1(NC)CCc2c1ccnc2Nc1cc2cc(-c3cnnn3C)nc(N)c2cn1 (single isomer, unassigned) [Example 4, N^6-(5-ethyl-5-(methylamino)-6,7-dihydro-5H-cyclopenta[c]pyridin-1-yl)-3-(1-methyl-1H-1,2,3-triazol-5-yl)-2,7-naphthyridine-1,6-diamine] | 0.47 nM
7 | CNC1(c2ccnc(Nc3cc4cc(-c5cnnn5C)nc(N)c4cn3)c2)CCC1 [Example 24, 3-(1-methyl-1H-1,2,3-triazol-5-y1)-N^6-(4-(1-(methylamino)cyclobutyl)pyridin-2-yl)-2,7-naphthyridine-1,6-diamine] | 0.089 nM
8 | CCC(N)(CC)c1cc(Nc2cc3cc(-c4cnnn4C)nc(N)c3cn2)ncn1 [Example 23, N^6-(6-(3-aminopentan-3-yl)pyrimidin-4-yl)-3-(1-methyl-1H-1,2,3-triazol-5-yl)-2,7-naphthyridine-1,6-diamine] | 0.057 nM
9 | CNC(c1ccnc(Nc2cc3cc(-c4cnnn4C)nc(N)c3cn2)c1)C(C)(C)C (single isomer, unassigned) [Example 35, N^6-(4-(2,2-dimethyl-1-(methylamino)propyl)pyridin-2-yl)-3-(1-methyl-1H-1,2,3-triazol-5-yl)-2,7-naphthyridine-1,6-diamine] | 0.32 nM
10 | Cn1nncc1-c1cc2cc(Nc3cc(C(N)CC(F)(F)F)ccn3)ncc2c(N)n1 (single isomer, unassigned) [Example 17, N^6-(4-(1-amino-3,3,3-trifluoropropyl)pyridin-2-yl)-3-(1-methyl-1H-1,2,3-triazol-5-yl)-2,7-naphthyridine-1,6-diamine] | 0.12 nM
11 | CNC(C)(COC)c1ccnc(Nc2cc3cc(-c4cnnn4C)nc(N)c3cn2)c1 (single isomer, unassigned) [Example 32, N^6-(4-(1-methoxy-2-(methylamino)propan-2-yl)pyridin-2-yl)-3-(1-methyl-1H-1,2,3-triazol-5-yl)-2,7-naphthyridine-1,6-diamine] | 0.087 nM
12 | CN(C)C(C)(C)c1ccnc(Nc2cc3cc(-c4cnnn4C)nc(N)c3cn2)c1 [Example 36, N^6-(4-(2-(dimethylamino)propan-2-yl)pyridin-2-yl)-3-(1-methyl-1H-1,2,3-triazol-5-yl)-2,7-naphthyridine-1,6-diamine] | 0.061 nM
13 | CNC(C)(c1ccnc(Nc2cc3cc(-c4cnnn4C)nc(N)c3cn2)c1)C(C)C (single isomer, unassigned) [Example 31, 3-(1-methyl-1H-1,2,3-triazol-5-yl)-N^6-(4-(3-methyl-2-(methylamino)butan-2-yl)pyridin-2-yl)-2,7-naphthyridine-1,6-diamine] | 0.03 nM
14 | CCC1(NC)CCc2cnc(Nc3cc4cc(-c5cnnn5C)nc(N)c4cn3)cc21 (single isomer, unassigned) [Example 5, N^6-(5-ethyl-5-(methylamino)-6,7-dihydro-5H-cyclopenta[c]pyridin-3-yl)-3-(1-methyl-1H-1,2,3-triazol-5-yl)-2,7-naphthyridine-1,6-diamine] | 0.033 nM
15 | CCC(N)c1cc(Nc2cc3cc(-c4cnnn4C)nc(N)c3cn2)ncc1C (single isomer, unassigned) [Example 13, N^6-(4-(1-aminopropyl)-5-methylpyridin-2-yl)-3-(1-methyl-1H-1,2,3-triazol-5-yl)-2,7-naphthyridine-1,6-diamine] | 0.065 nM
16 | CCC1(NC)CCc2c1ccnc2Nc1cc2cc(-c3cnnn3C)nc(N)c2cn1 (single isomer, unassigned) [Example 3, N^6-(5-ethyl-5-(methylamino)-6,7-dihydro-5H-cyclopenta[c]pyridin-1-yl)-3-(1-methyl-1H-1,2,3-triazol-5-yl)-2,7-naphthyridine-1,6-diamine] | 0.36 nM
17 | CNC(C)(c1ccnc(Nc2cc3cc(-c4cnnn4C)nc(N)c3cn2)c1)C1CC1 (single isomer, unassigned) [Example 20, N^6-(4-(1-cyclopropyl-1-(methylamino)ethyl)pyridin-2-yl)-3-(1-methyl-1H-1,2,3-triazol-5-yl)-2,7-naphthyridine-1,6-diamine] | 0.049 nM
18 | CNC(C)(COC)c1ccnc(Nc2cc3cc(-c4cnnn4C)nc(N)c3cn2)c1 (single isomer, unassigned) [Example 33, N^6-(4-(1-methoxy-2-(methylamino)propan-2-yl)pyridin-2-yl)-3-(1-methyl-1H-1,2,3-triazol-5-yl)-2,7-naphthyridine-1,6-diamine] | 0.25 nM
19 | CCC(N)c1cc(Nc2cc3cc(-c4cnnn4C)nc(N)c3cn2)ncc1C (single isomer, unassigned) [Example 14, N^6-(4-(1-aminopropyl)-5-methylpyridin-2-yl)-3-(1-methyl-1H-1,2,3-triazol-5-yl)-2,7-naphthyridine-1,6-diamine] | 0.098 nM
20 | Cn1nncc1-c1cc2cc(Nc3cc(C(C)(N)C(F)(F)F)ccn3)ncc2c(N)n1 (single isomer, unassigned) [Example 29, N^6-(4-(2-amino-1,1,1-trifluoropropan-2-yl)pyridin-2-yl)-3-(1-methyl-1H-1,2,3-triazol-5-yl)-2,7-naphthyridine-1,6-diamine] | 0.17 nM
21 | CNC(C)(c1ccnc(Nc2cc3cc(-c4cnnn4C)nc(N)c3cn2)c1)C1CC1 (single isomer, unassigned) [Example 19, N^6-(4-(1-cyclopropyl-1-(methylamino)ethyl)pyridin-2-yl)-3-(1-methyl-1H-1,2,3-triazol-5-yl)-2,7-naphthyridine-1,6-diamine] | 0.047 nM
22 | CNC1(c2ccnc(Nc3cc4cc(-c5cnnn5C)nc(N)c4cn3)c2)CCCC1 [Example 27, 3-(1-methyl-1H-1,2,3-triazol-5-y1)-N^6-(4-(1-(methylamino)cyclopentyl)pyridin-2-yl)-2,7-naphthyridine-1,6-diamine] | 0.073 nM
